This is an account of results in patent publication US20260022340A1, “ATRIOVENTRICULAR NODE-LIKE PACEMAKER CELLS” (UNIVERSITY HEALTH NETWORK, priority 2022, published 2026).

The assay concerns human cardiac progenitors. The assay is described as follows: Induction of AVN phenotype in hPSC-derived cardiac progenitors, flow cytometry for NKX2-5+TBX3+ myocytes at day 20. It counts as cell-based. As to the method: First, hPSCs were incubated in media containing BMP and Rho-associated protein kinase (ROCK) inhibitor on an orbital shaker to generate embryoid bodies (differentiation protocol day: 0). Then, cardiogenic mesoderm was induced using media containing 1-100 ng/mL BMP4, 1-100 ng/ml Activin A, 1-20 ng/mL bFGF, and 1-10 μM CHIR-99021 (differentiation protocol day: 1). […] The cardiogenic mesoderm can be analyzed at day 3/4 of differentiation for the expression of PDGFRa, RALDH2 and CD235a, and should be PDGFRa+RALDH2− and CD235a^low (max 50% positive).
Next, cardiac progenitors were induced using media that contained 0.5-10 μM IWP2 and 1-20 ng/mL VEGF (differentiation protocol day: 3). At this stage, the cardiac progenitors may be a mixed population of early stage (NKX2-5^−) and late stage (NKX2-5^+) cardiac progenitors which may be contractile or not. […] Culture was continued in media that contained 5 ng/mL VEGF until day 12 of the differentiation protocol. The culture was maintained until day 20 of the differentiation protocol before analysis. […] FIGS. 3B, 4B, 5A and 5B present the percentage of NKX2-5^+ TBX3^+ myocytes of total cells present in the culture.
A NKX2-5:GFP+TBX3:tdTomato+ transgenic double reporter hPSC line was cultured using the protocol described in Example 1. AVNLPCs were identified and isolated using Fluorescence-activated cell sorting (FACS), based on their expression of NKX2-5 and TBX3 and the associated expression of the fluorescent reporter (FIG. 2).

With `Cc1c[nH]c(-c2cnc(NCCNc3ccc(C#N)cn3)nc2-c2ccc(Cl)cc2Cl)n1` [CHIR-99021], the “Change in NKX2-5+TBX3+ AVNLPCs of total cell population at day 20” value (9 uM CHIR from day 8-11, day 11-15 or day 15-18, n=5 (FIG. 3B)) is given as “significant increase”. The “CHIR-99021 concentration at which relatively more NKX2-5+TBX3+ myocytes were induced” value (3-15 μM used) was in the range of 12 to 15 µM. In addition, the “CHIR concentration giving highest percentage of NKX2-5+TBX3+ AVNLPCs” value (treatment day 8-11, day 20 analysis, n=5 (FIG. 4B)) lay within 12 to 15 µM.
